The values below come from ChEMBL document CHEMBL1795340, “A discovery of novel Mycobacterium tuberculosis pantothenate synthetase inhibitors based on the molecular mechanism of actinomycin D inhibition” (Bioorg Med Chem Lett, 2011).

Test [1] relates to Mycobacterium tuberculosis. As to the kind of experiment: Antimycobacterial activity against drug-resistant Mycobacterium tuberculosis clinical isolate. In kind it is functional.
Test [2] deals with Mycobacterium tuberculosis. As to the kind of experiment: Antimycobacterial activity against rifampin and isoniazid-resistant Mycobacterium tuberculosis. The test is classed as functional.

In brackets after ≈: the same amount, converted by molar mass.

In the case of `COC(=O)c1cc2c(OCc3ccccc3)cc(N)cc2[nH]1`, the minimal inhibitory concentration (MIC) in test [1] and in test [2] was 54 µM (≈ 16 µg/mL) each time.
